These results are taken from article PMC11971462, “Generation and validation of a novel multitarget small molecule in glioblastoma” (Cell Death & Disease, 2025).

In general, IC50 refers to the concentration that inhibits the measured activity by half. A low value points to higher potency.

The subject of one experiment is U87-MG cells. The experiment can be described thus: Subcutaneous U87-MG tumor growth, single treatment. It counts as in vivo, athymic nude-Foxn1nu mice. The note with it: day 34, 100 µM intratumoral. The method, then: For tumor growth experiments, 5 × 10^5 U87-MG cells were subcutaneously injected into two bottom flanks of athymic nude-Foxn1^nu mice, and once tumors reached a size of 25-50 mm^3, mice were sorted into groups taking into account gender and tumor size. Afterwards, mice were intratumorally treated with vehicle, SAHA 100 µM or DDI199 100 µM following a schedule of 5 days on and 2 days off. In combined treatment, mice were treated intraperitoneally with 0.5 mg/Kg of TMZ for 5 days and intratumorally following a schedule of 5 days on and 2 days off with vehicle, SAHA 100 µM or DDI199 100 µM. After 4 weeks of treatment, some mice were kept for washout experiment, while the rest were sacrificed and tumors were extracted for immunohistochemistry and to disaggregate for reinjection and oncosphere formation studies. For reinjection assays, 1.5 × 10^5 cells were subcutaneously injected and tumor size was periodically measured. Once tumors reached end-point criteria, they were extracted for immunohistochemical analysis. An external caliper was used for tumor size measurement and the tumor volume was estimated using the formula V = L · W^2 · 0.5 (where L is tumor length and W is the tumor width).

The subject of another experiment is U87-MG glioma cells. In words: MTT cell viability. It counts as cell-based. The conditions noted are these: Homo sapiens, U-87 MG, 72 h. The protocol:
(§1) MTT assay was used to study cell viability. For that, cells were seeded at a density of 1.5 × 10^3 cells/well in 96-well plates, incubated overnight and then treated with increasing concentrations of DDI199. After 72 h of treatment, MTT absorbance was measured at 570 nm. GraphPad Prism software was used to analyze results and calculate IC50 values.

In experiment [1] the test system is pancreatic cell line RWP1. In words: MTT cell viability. It is filed as cell-based. The note with it: Homo sapiens, 72 h. The protocol:
as §1

For experiment [2], the system named is GNS179 patient-derived glioma stem cells. The experiment can be described thus: MTT cell viability. It is filed as cell-based. The conditions noted are these: Homo sapiens, 72 h. The method, then: as §1
Experiment [3] relates to Normal Human Astrocytes (NHA). In words: MTT cell viability. The conditions noted are these: Astrocyte, 72 h. It counts as cell-based. The protocol:
as §1

The test system of the next experiment is U251-MG glioma cells. The experiment can be described thus: MTT cell viability. It counts as cell-based. The conditions noted are these: Homo sapiens, U-251, 72 h. The protocol:
as §1

The test system of experiment [4] is lung cancer NCI-H1299 cells. In words: MTT cell viability. It counts as cell-based. The note with it: Homo sapiens, 72 h. The method, then:
as §1

The subject of experiment [5] is gastric cancer MKN45 cells. The experiment can be described thus: MTT cell viability. It counts as cell-based. The note with it: Homo sapiens, MKN-45, 72 h. The method, then:
as §1

The subject of experiment [6] is GNS166 patient-derived glioma stem cells. The experiment can be described thus: MTT cell viability. The note with it: Homo sapiens, 72 h. It is filed as cell-based. The method, then: as §1

Molecules are shown by their SMILES.

Consider `C#CCN(Cc1cc2cc(OCCCN3CCCCC3)ccc2n1S(=O)(=O)c1ccccc1)C(=O)CCCCCCC(=O)NO` [DDI199], for which, in the experiment with U87-MG cells, the “Reduction in tumor growth versus controls” value is recorded as around 50%. Moreover, the “Tumor weight at end-point” value in the experiment on U87-MG cells is “significantly lower than the controls and also of SAHA”. For the same molecule, the “Mean final tumor volume” value in the experiment on U87-MG cells (5 days on 2 days off, controls 800 mm^3) came to 465 mm^3. The IC50 in the experiment on U87-MG glioma cells came out at 3.23 µM; in [1], 0.88 µM; in experiment [2], 5.28 µM; in [3], 7 µM; with U251-MG glioma cells it was 5.45 µM; in experiment [4], 3.33 µM. Moreover, the IC50 in [5] came to 2.61 µM; in [6] it was 13 µM.
